Assay results as given in patent US20210363254A1, “PHARMACEUTICAL COMBINATIONS” (Novartis AG, priority 2018, published 2021).
Read-outs that look alike come from different tables or passages of the source.

Q: Which “Hyperkalaemia, Grade 3/4” value (1B 200 mg, N=3) does the source give for `COc1ncc(-c2nc3c(n2C(C)C)[C@H](c2ccc(Cl)cc2)N(c2cc(Cl)cn(C)c2=O)C3=O)c(OC)n1` [HDM201, (S)-5-(5-Chloro-1-methyl-2-oxo-1,2-dihydro-pyridin-3-yl)-6-(4-chloro-phenyl)-2-(2,4-dimethoxy-pyrimidin-5-yl)-1-isopropyl-5,6-dihydro-1H-pyrrolo[3,4-d]imidazol-4-one] here?
A: 0 n (%)

Q: What about the “Hypocalcaemia, All Grades” value (1B 200 mg, N=3) of the same molecule?
A: 0 n (%)

Q: And the “Hypocalcaemia, Grade 3/4” value (1B 200 mg, N=3)?
A: 0 n (%)

Q: And the “Influenza Like Illness, All Grades” value (1B 200 mg, N=3)?
A: 0 n (%)

Q: What about the “Influenza Like Illness, Grade 3/4” value (1B 200 mg, N=3) of the same molecule?
A: 0 n (%)

Q: What about the “Lethargy, All Grades” value (1B 200 mg, N=3) of the same molecule?
A: 0 n (%)

Q: And the “Lethargy, Grade 3/4” value (1B 200 mg, N=3)?
A: 0 n (%)

Q: And the “Leukopenia, All Grades” value (1B 200 mg, N=3)?
A: 0 n (%)

Q: And the “Leukopenia, Grade 3/4” value (1B 200 mg, N=3)?
A: 0 n (%)

Q: And the “Lipase Increased, All Grades” value (1B 200 mg, N=3)?
A: 1 (33.3) n (%)

Q: And the “Lipase Increased, Grade 3/4” value (1B 200 mg, N=3)?
A: 1 (33.3) n (%)

Q: What about the “Lymphopenia, All Grades” value (1B 200 mg, N=3) of the same molecule?
A: 0 n (%)

Q: And the “Lymphopenia, Grade 3/4” value (1B 200 mg, N=3)?
A: 0 n (%)

Q: What about the “Monocytosis, All Grades” value (1B 200 mg, N=3) of the same molecule?
A: 0 n (%)

Q: What about the “Monocytosis, Grade 3/4” value (1B 200 mg, N=3) of the same molecule?
A: 0 n (%)

Q: What about the “Musculoskeletal Pain, All Grades” value (1B 200 mg, N=3) of the same molecule?
A: 0 n (%)

Q: What about the “Musculoskeletal Pain, Grade 3/4” value (1B 200 mg, N=3) of the same molecule?
A: 0 n (%)

Q: And the “Myalgia, All Grades” value (1B 200 mg, N=3)?
A: 0 n (%)

Q: What about the “Myalgia, Grade 3/4” value (1B 200 mg, N=3) of the same molecule?
A: 0 n (%)

Q: And the “Nausea, All Grades” value (1B 200 mg, N=3)?
A: 1 (33.3) n (%)

Q: What about the “Nausea, Grade 3/4” value (1B 200 mg, N=3) of the same molecule?
A: 0 n (%)

Q: What about the “Neuralgia, All Grades” value (1B 200 mg, N=3) of the same molecule?
A: 0 n (%)

Q: And the “Neuralgia, Grade 3/4” value (1B 200 mg, N=3)?
A: 0 n (%)

Q: And the “Neutropenia, All Grades” value (1B 200 mg, N=3)?
A: 0 n (%)

Q: What about the “Neutropenia, Grade 3/4” value (1B 200 mg, N=3) of the same molecule?
A: 0 n (%)

Q: And the “Neutrophil Count Decreased, All Grades” value (1B 200 mg, N=3)?
A: 0 n (%)

Q: And the “Neutrophil Count Decreased, Grade 3/4” value (1B 200 mg, N=3)?
A: 0 n (%)

Q: What about the “Oedema, All Grades” value (1B 200 mg, N=3) of the same molecule?
A: 1 (33.3) n (%)

Q: What about the “Oedema, Grade 3/4” value (1B 200 mg, N=3) of the same molecule?
A: 0 n (%)

Q: What about the “Oral Candidiasis, All Grades” value (1B 200 mg, N=3) of the same molecule?
A: 0 n (%)

Q: What about the “Oral Candidiasis, Grade 3/4” value (1B 200 mg, N=3) of the same molecule?
A: 0 n (%)

Q: What about the “Platelet Count Decreased, All Grades” value (1B 200 mg, N=3) of the same molecule?
A: 0 n (%)

Q: And the “Platelet Count Decreased, Grade 3/4” value (1B 200 mg, N=3)?
A: 0 n (%)

Q: What about the “Pruritus, All Grades” value (1B 200 mg, N=3) of the same molecule?
A: 0 n (%)

Q: What about the “Pruritus, Grade 3/4” value (1B 200 mg, N=3) of the same molecule?
A: 0 n (%)

Q: And the “Thrombocytopenia, All Grades” value (1B 200 mg, N=3)?
A: 0 n (%)

Q: What about the “Thrombocytopenia, Grade 3/4” value (1B 200 mg, N=3) of the same molecule?
A: 0 n (%)

Q: And the “Total, All Grades” value (1B 200 mg, N=3)?
A: 3 (100) n (%)

Q: And the “Total, Grade 3/4” value (1B 200 mg, N=3)?
A: 1 (33.3) n (%)

Q: And the “Vomiting, All Grades” value (1B 200 mg, N=3)?
A: 0 n (%)

Q: What about the “Vomiting, Grade 3/4” value (1B 200 mg, N=3) of the same molecule?
A: 0 n (%)

Q: And the “Weight Decreased, All Grades” value (1B 200 mg, N=3)?
A: 0 n (%)

Q: And the “Weight Decreased, Grade 3/4” value (1B 200 mg, N=3)?
A: 0 n (%)

Q: What about the “White Blood Cell Count Decreased, All Grades” value (1B 200 mg, N=3) of the same molecule?
A: 0 n (%)

Q: And the “White Blood Cell Count Decreased, Grade 3/4” value (1B 200 mg, N=3)?
A: 0 n (%)

Q: And the “Abdominal Pain, All Grades” value (1B all subjects, N=20)?
A: 3 n (%)

Q: What about the “Abdominal Pain, Grade 3/4” value (1B all subjects, N=20) of the same molecule?
A: 0 n (%)

Q: What about the “Alanine Aminotransferase Increased, All Grades” value (1B all subjects, N=20) of the same molecule?
A: 1 n (%)

Q: What about the “Alanine Aminotransferase Increased, Grade 3/4” value (1B all subjects, N=20) of the same molecule?
A: 0 n (%)

Q: And the “Alopecia, All Grades” value (1B all subjects, N=20)?
A: 1 n (%)

Q: What about the “Alopecia, Grade 3/4” value (1B all subjects, N=20) of the same molecule?
A: 0 n (%)

Q: And the “Amylase Increased, All Grades” value (1B all subjects, N=20)?
A: 1 n (%)

Q: And the “Amylase Increased, Grade 3/4” value (1B all subjects, N=20)?
A: 0 n (%)

Q: And the “Anaemia, All Grades” value (1B all subjects, N=20)?
A: 5 n (%)

Q: And the “Anaemia, Grade 3/4” value (1B all subjects, N=20)?
A: 0 n (%)

Q: What about the “Asthenia, All Grades” value (1B all subjects, N=20) of the same molecule?
A: 2 n (%)

Q: And the “Asthenia, Grade 3/4” value (1B all subjects, N=20)?
A: 0 n (%)

Q: What about the “Blood Bilirubin Increased, All Grades” value (1B all subjects, N=20) of the same molecule?
A: 1 n (%)

Q: What about the “Blood Bilirubin Increased, Grade 3/4” value (1B all subjects, N=20) of the same molecule?
A: 0 n (%)

Q: What about the “Blood Creatine Phosphokinase Increased, All Grades” value (1B all subjects, N=20) of the same molecule?
A: 2 n (%)

Q: And the “Blood Creatine Phosphokinase Increased, Grade 3/4” value (1B all subjects, N=20)?
A: 1 n (%)

Q: And the “Blood Creatinine Increased, All Grades” value (1B all subjects, N=20)?
A: 2 n (%)

Q: And the “Blood Creatinine Increased, Grade 3/4” value (1B all subjects, N=20)?
A: 0 n (%)

Q: And the “Decreased Appetite, All Grades” value (1B all subjects, N=20)?
A: 4 n (%)

Q: What about the “Decreased Appetite, Grade 3/4” value (1B all subjects, N=20) of the same molecule?
A: 0 n (%)

Q: And the “Dehydration, All Grades” value (1B all subjects, N=20)?
A: 1 n (%)

Q: And the “Dehydration, Grade 3/4” value (1B all subjects, N=20)?
A: 0 n (%)

Q: What about the “Diarrhoea, All Grades” value (1B all subjects, N=20) of the same molecule?
A: 5 n (%)

Q: What about the “Diarrhoea, Grade 3/4” value (1B all subjects, N=20) of the same molecule?
A: 0 n (%)

Q: And the “Dry Skin, All Grades” value (1B all subjects, N=20)?
A: 1 n (%)

Q: What about the “Dry Skin, Grade 3/4” value (1B all subjects, N=20) of the same molecule?
A: 0 n (%)

Q: What about the “Dysgeusia, All Grades” value (1B all subjects, N=20) of the same molecule?
A: 1 n (%)

Q: And the “Dysgeusia, Grade 3/4” value (1B all subjects, N=20)?
A: 0 n (%)

Q: And the “Eye Pain, All Grades” value (1B all subjects, N=20)?
A: 1 n (%)

Q: What about the “Eye Pain, Grade 3/4” value (1B all subjects, N=20) of the same molecule?
A: 0 n (%)

Q: What about the “Fatigue, All Grades” value (1B all subjects, N=20) of the same molecule?
A: 4 n (%)

Q: What about the “Fatigue, Grade 3/4” value (1B all subjects, N=20) of the same molecule?
A: 1 n (%)

Q: What about the “Folliculitis, All Grades” value (1B all subjects, N=20) of the same molecule?
A: 1 n (%)

Q: And the “Folliculitis, Grade 3/4” value (1B all subjects, N=20)?
A: 0 n (%)

Q: What about the “Gamma-Glutamyltransferase Increased, All Grades” value (1B all subjects, N=20) of the same molecule?
A: 1 n (%)

Q: What about the “Gamma-Glutamyltransferase Increased, Grade 3/4” value (1B all subjects, N=20) of the same molecule?
A: 0 n (%)

Q: What about the “Headache, All Grades” value (1B all subjects, N=20) of the same molecule?
A: 1 n (%)

Q: And the “Headache, Grade 3/4” value (1B all subjects, N=20)?
A: 0 n (%)

Q: And the “Hyperkalaemia, All Grades” value (1B all subjects, N=20)?
A: 1 n (%)

Q: And the “Hyperkalaemia, Grade 3/4” value (1B all subjects, N=20)?
A: 0 n (%)

Q: And the “Hypocalcaemia, All Grades” value (1B all subjects, N=20)?
A: 1 n (%)

Q: What about the “Hypocalcaemia, Grade 3/4” value (1B all subjects, N=20) of the same molecule?
A: 0 n (%)

Q: And the “Influenza Like Illness, All Grades” value (1B all subjects, N=20)?
A: 1 n (%)

Q: What about the “Influenza Like Illness, Grade 3/4” value (1B all subjects, N=20) of the same molecule?
A: 0 n (%)

Q: And the “Lethargy, All Grades” value (1B all subjects, N=20)?
A: 1 n (%)

Q: What about the “Lethargy, Grade 3/4” value (1B all subjects, N=20) of the same molecule?
A: 0 n (%)

Q: What about the “Leukopenia, All Grades” value (1B all subjects, N=20) of the same molecule?
A: 2 n (%)

Q: And the “Leukopenia, Grade 3/4” value (1B all subjects, N=20)?
A: 1 n (%)

Q: And the “Lipase Increased, All Grades” value (1B all subjects, N=20)?
A: 4 n (%)

Q: What about the “Lipase Increased, Grade 3/4” value (1B all subjects, N=20) of the same molecule?
A: 3 n (%)

Q: And the “Lymphopenia, All Grades” value (1B all subjects, N=20)?
A: 2 n (%)

Q: And the “Lymphopenia, Grade 3/4” value (1B all subjects, N=20)?
A: 1 n (%)

Q: And the “Monocytosis, All Grades” value (1B all subjects, N=20)?
A: 1 n (%)

Q: And the “Monocytosis, Grade 3/4” value (1B all subjects, N=20)?
A: 0 n (%)

Q: What about the “Musculoskeletal Pain, All Grades” value (1B all subjects, N=20) of the same molecule?
A: 1 n (%)

Q: What about the “Musculoskeletal Pain, Grade 3/4” value (1B all subjects, N=20) of the same molecule?
A: 0 n (%)

Q: And the “Myalgia, All Grades” value (1B all subjects, N=20)?
A: 1 n (%)

Q: And the “Myalgia, Grade 3/4” value (1B all subjects, N=20)?
A: 0 n (%)

Q: What about the “Nausea, All Grades” value (1B all subjects, N=20) of the same molecule?
A: 12 n (%)
